Data on 12 molecules can be found in US4382094A, “Reduced naphthalenes, their preparation and use” (Beecham Group Limited, priority 1980, dated 1983).

The assay has as its system ear, irritant solution of 1% croton oil. The experiment in a line: topical anti-inflammatory activity, croton oil rat ear model (Fregnan and Torsello). Format: in vivo, Rats, Charles River Wistar Strain, female. The following applies: 6 hours. The method, then: Compounds were tested for anti-inflammatory activity in a topical model based on that described by Fregnan G. B. and Torsello, A. L. (1975), Current Therapeutic Research 17, No. 4, 375-381. In outline the method is as follows:
Rats, Charles River Wistar Strain, female, 10/group. Weight range 200-240 g.
Irritant solution applied consists of 1% croton oil in tetrahydrofuran. 0.05 ml is placed on each ear, compound being included in the irritant solution on one ear. 6 hours later the ears are removed by cutting along the hairline and weighed.
-ve controls--no irritant solution.
+ve controls--irritant solution on both ears.

[1] abbreviates: 3.0 mg/ear on the other (treated) ear.
The mark [2] stands for this setting: Rattus norvegicus, 2 mg/ear, topical, compound in irritant solution, read-out: Treated Ear % inhibition.
[3] abbreviates: Rattus norvegicus, topical, compound in irritant solution, read-out: Treated Ear % inhibition.

Take `CC12CCC(=O)C=C1CCC(=Cc1ccccc1)C2=O` (stereo not drawn) [Compound 1, 2-Benzylidene-3,4,8,8a-tetrahydro-8a-methyl-1,6(2H,7H)-naphthalenedione]: under setting [1], the “Non-Treated Ear % inhibition” value is recorded as -1% and the “Non-Treated Ear wt.” value is recorded as 136.5 ± 5.80 mg. Further, the inhibition in vivo at 3 mg/ear (Rattus norvegicus, 3.0 mg/ear, topical, compound in irritant solution, read-out: Treated Ear % inhibition) was found to be 70%.

Take `CC12CCC(=O)C=C1CCC(=Cc1cccs1)C2=O` (stereo not drawn) [Compound 2, 2-(2-Thienylmethylidene)-3,4,8,8a-tetrahydro-8a-methyl-1,6(2H,7H)-naphthalenedione]: the inhibition in vivo at 2 mg/ear under setting [2] was found to be 71%.

As for `CC12CCC(=O)C=C1CCC(=Cc1ccc(Cl)cc1)C2=O` (stereo not drawn) [Compound 3, 2-(4-Chlorobenzylidene)-3,4,8,8a-tetrahydro-8a-methyl-1,6-(2H,7H)-naphthalenedione], under setting [2], the inhibition in vivo at 2 mg/ear came out at 63%.

Regarding `CC12CCC(=O)C=C1CCC(=Cc1ccco1)C2=O` (stereo not drawn) [Compound 4, 2-(2-Furylmethylidene)-3,4,8,8a-tetrahydro-8a-methyl-1,6(2H,7H)-naphthalenedione], the inhibition in vivo at 2 mg/ear under setting [2] amounted to 44%.

On to `CC12CCC(=O)C=C1CCC(=Cc1cccc(Cl)c1)C2=O` (stereo not drawn) [Compound 5, 2-(3-Chlorobenzylidene)-3,4,8,8a-tetrahydro-8a-methyl-1,6-(2H,7H)-naphthalenedione], for which the inhibition in vivo at 2 mg/ear under setting [2] turned out to be 41%.

Take `CC12CCC(=O)C=C1CCC(=Cc1ccc(C#N)cc1)C2=O` (stereo not drawn) [Compound 6, 4-[(3,4,8,8a-Tetrahydro-8a-methyl-1,6-dioxo(2H,7H)-naphthalen-2-yl)methylidene]benzonitrile]: the “Treated Ear wt.” value (2 mg/ear, topical, * p<0.05 vs control (Students t test)) was 87.2 mg. In addition, the inhibition in vivo at 2 mg/ear under setting [2] is 53%.

On to `CC12CCC(=O)C=C1CCC(=Cc1ccc([N+](=O)[O-])cc1)C2=O` (stereo not drawn) [Compound 7, 4-[(3,4,8,8a-Tetrahydro-8a-methyl-1,6-dioxo(2H,7H)-naphthalen-2-yl)methylidene]nitrobenzene], for which the inhibition in vivo at 2 mg/ear under setting [2] is 81%.

With `CN(C)c1ccc(C=C2CCC3=CC(=O)CCC3(C)C2=O)cc1` (stereo not drawn) [Compound 8, 2-(4-Dimethylaminobenzylidene)-3,4,8,8a-tetrahydro-8a-methyl-1,6(2H,7H)-naphthalenedione], under setting [3], the inhibition in vivo at 1.5 mg/ear came to 99%.

For `CC12CCC(=O)C=C1CCC(=Cc1ccc3c(c1)OCO3)C2=O` (stereo not drawn) [Compound 9, 2-(3,4-Methylenedioxybenzylidene)-3,4,8,8,a-tetrahydro-8a-methyl-1,6(2H,7H)-naphthalenedione], the inhibition in vivo at 2 mg/ear under setting [2] came to 100%.

`CC12CCC(=O)C=C1CCC(=Cc1cccc(O)c1)C2=O` (stereo not drawn) [Compound 10, 2-(3-Hydroxybenzylidene)3,4,8,8a-tetrahydro-8a-methyl-1,6(2H,7H)-naphthalenedione]: the inhibition in vivo at 2 mg/ear under setting [2] is 98%.

Consider `COc1ccc(C=C2CCC3=CC(=O)CCC3(C)C2=O)cc1` (stereo not drawn) [Compound 11, 2-(4-Methoxybenzylidene)-3,4,8,8a-tetrahydro-8a-methyl-1,6(2H,7H)-naphthalenedione], for which the inhibition in vivo at 2 mg/ear under setting [2] was found to be 95%.

For the molecule `CC12CCC(=O)C=C1CCC(=Cc1ccccc1)C2O` (stereo not drawn) [Compound 14, 6-Benzylidene-4,4a,5,6,7,8-hexahydro-5-hydroxy-4a-methyl-2(3H)-naphthalenon], under setting [3], the inhibition in vivo at 1.5 mg/ear turned out to be 107%.
